Experiments:
[1] = system: hemorrhagic stroke induced by caudate nucleus collagenase VII injection in rats; assay: Acute phase of hemorrhagic stroke induced by caudate nucleus collagenase VII injection, short-term neurological deficit score; format: in vivo; settings: for mNSS score / Garcia score: 24 h after hemorrhagic stroke modeling; for mNSS score: scale 0-18, higher worse; for Garcia score: scale 3-18, lower worse
Experimental: after 2 h of hemorrhagic stroke, Zea Longa Score was used to determine whether the modeling was successful, and rats with successful modeling were taken and randomly grouped to be administered.
The rats were randomly divided into a sham operation group (Sham group, given a blank emulsion with a volume equal to that of the high-dose CTMB group), a model group (Vehicle group, given a blank emulsion with a volume equal to that of the high-dose CTMB group), a low-dose CTMB group (CTMB-L group, 10 mg/kg), a high-dose CTMB group (CTMB-H group, 20 mg/kg), and an edaravone dexborneol injection concentrated solution group (EDB group, commercially available, 3 mg/kg). Each group included 10-13 rats, which were administered by intraperitoneal injection. It should be noted that in the experiment, the mode of administration for rats was intraperitoneal injection, and a ratio of the effective dose of CTMB, the active ingredient in the emulsion injection, to the unit mass of the human body was within a range of 0.2 mg-4.0 mg/kg, which referred to the ratio of the effective dose of CTMB, the active ingredient in the emulsion injection, to the unit mass of the human body during intravenous infusion, which was extrapolated from effective dose of the rats. Considering the different bioavailability, peak concentration, and peak time of the drug due to different species and different modes of administration, the ration of the effective dose of the active ingredient CTMB in the emulsion injection to unit mass of human body was finally determined to be 0.2 mg-4.0 mg/kg through conversion.
The rats were fasted and dehydrated for 8 h before the procedure, and anesthesia was induced using 4% isoflurane, and 2% isoflurane was given to maintain anesthesia, and the rats were maintained at a temperature of about 37° C. The rats were fixed at the prone position on the stereotaxic apparatus, the head was prepared for skinning, and a longitudinal incision was made in the median sagittal shape of the head to incise the skin and subcutaneous tissues, exposing the anterior chimney and coronal suture. The stereotaxic apparatus was used to locate the right caudate nucleus of the rat with the fontanel as the origin and the right paracentral opening of the midline of 3.0 mm, marked and then holes were punched with the cranial bone drill, the dura was exposed, and the hemorrhage was stopped adequately. The micro-syringe was pre-mounted on the stereotaxic apparatus, and the needle was vertically injected 5.5 mm along the cranial borehole (i.e., the caudate nucleus site). Collagenase VII (1 μL) at a concentration of 0.5 U/μL was injected slowly and uniformly into the brain for 5 min, the needle was stopped for 8 min, and the syringe was slowly pushed out. The cranial defect was closed using sterile bone wax and the scalp incision was sutured. After disinfecting the treatment with iodophor, the rats were returned to the cage. The sham operation group (Sham group) remained unchanged except for the insertion of a needle for saline injection. After awaking from anesthesia, the rats were fed normally. […]
The neural function of the rats was comprehensively evaluated after 24 h of modeling using the modified mNSS score and Garcia score, and mNSS scoring criteria was shown in Table 3 and Garcia scoring criteria was shown in Table 4. […]

[2] = system: IL-1; assay: IL-1 in cerebral cortex of TBI rats; format: in vivo, SD rats; settings: 30 mg/kg ip 2 h after TBI; 24 h after administration; FIG. 3
Experimental: (§1) The experimental grouping and drug administration plan were as follows. • Sham operation group (Group P): saline was given with the same volume as in the CTMB group; • Model group (T group): a blank emulsion was given with the same volume as in the CTMB group; • Medium dose group (Group M): a dose of 30 mg/kg of CTMB emulsion injection was given.
(§2) The experimental grouping and drug administration plan were the same as the test 3. After 2 h of the TBI modeling, different groups of rats were administered intraperitoneally. After 24 h of the administration, the rats were deeply anesthetized, the head was severed and the brain was removed, about 60-120 mg of hemisphere cortex was taken out from the hemisphere on the blood side, 10 times the volume of ice-cold centrifugal buffer used for biochemical assays was added, homogenization was carried out in an ice bath for 10 min, and centrifugation was carried out at 4° C. and 14000 rpm/min for 30 min. The supernatant was extracted, and inflammatory factors IL-1, IL-6, and TNF-α were tested according to the instructions of IL-1, IL-6, and TNF-α assay kits, respectively.

[3] = system: reduced glutathione (GSH); assay: GSH content in striatum of PD mice; format: in vivo, C57 mice; settings: Group D, CTMB 20 mg/kg ip, after 4 weeks, injured side
Experimental: The mice were randomly divided into a sham operation group (group S, given a blank emulsion with a volume equal to that of the administered group), a model group (group M, given a blank emulsion with a volume equal to that of the administered group), a CTMB group (20 mg/kg, group D), and a levodopa group (levodopa: benserazide hydrochloride=4:1, 12 mg/kg, group L), each group included 10-12 mice, and all of them were administered intraperitoneally.
Malondialdehyde (MDA) is a commonly used indicator of membrane lipid peroxidation, reduced glutathione (GSH) is one of the most commonly used non-enzymatic indicators of antioxidant substances, and superoxide dismutase (SOD) is a common indicator of antioxidant enzymes. After completing the evaluation of motor function after 4 weeks of drug administration, the mice were deeply anesthetized and perfused with 20 mL of saline via the heart. The brain was rapidly severed to isolate the striatal region on the injured side (right side), weighed, and placed into a 1.5 mL EP tube, and homogenized at low temperature by adding phosphate-buffered saline (PBS) at the ratio of a weight of animal tissues (g) to a volume of homogenization medium (mL) of 1:9. […]

[4] = system: IL-6; assay: IL-6 in cerebral cortex of TBI rats; format: in vivo, SD rats; settings: 30 mg/kg ip 2 h after TBI; 24 h after administration; FIG. 3
Experimental: as §1, §2

Structure (SMILES): COc1cc(OC)c(OC)cc1C=C1CCC1 [CTMB, 1-(cyclobutylidenemethyl)-2,4,5-trimethoxybenzene]
- toxic side effects associated with administration ([1]; 10 and 20 mg/kg ip, hemorrhagic stroke rats): No toxic side effects
- mNSS score ([1]; CTMB-H 20 mg/kg ip): 5.97 ± 1.68^####, *
- Garcia score ([1]; CTMB-H 20 mg/kg ip): 10.45 ± 2.49^####, *
- mNSS score ([1]; CTMB-L 10 mg/kg ip): 4.54 ± 1.81^###, ****
- Garcia score ([1]; CTMB-L 10 mg/kg ip): 12.45 ± 1.89^####, ****
- content of IL-1 in cerebral cortex tissue [2]: significantly reduced
- GSH [3]: 46.38 ± 6.94 μmol/g protein
- content of IL-6 in cerebral cortex tissue [4]: significantly reduced

From patent publication US20250270159A1, “1-(CYCLOBUTANEMETHYLIDENE)-2, 4, 5-TRIMETHOXYBENZENE COMPOUND AND PREPARATION METHOD AND USE THEREOF” (CHENGDU XINRUI TAIKANG TECHNOLOGY CO., LTD., priority 2023, published 2025)
